Test results from US8119661B2, “Piperidine derivatives and their use as muscarinic receptor modulators” (AstraZeneca AB, priority 2007, dated 2012).
pEC50: −log10 of the molar value.

Legend:
[1] = biological target: T1, hM5 (human Muscarinic receptor subtype 5) (Homo sapiens, UniProt P08912); experiment: Human M5 calcium mobilization FLIPR assay; assay type: cell-based; conditions: CHO cells expressing hM5, intracellular Ca2+ release
T1 construct: expressed in transfected cells; host or cells: CHO cells (Chinese hamster ovary cells, ATCC)
T1 sequence (P08912 1-532): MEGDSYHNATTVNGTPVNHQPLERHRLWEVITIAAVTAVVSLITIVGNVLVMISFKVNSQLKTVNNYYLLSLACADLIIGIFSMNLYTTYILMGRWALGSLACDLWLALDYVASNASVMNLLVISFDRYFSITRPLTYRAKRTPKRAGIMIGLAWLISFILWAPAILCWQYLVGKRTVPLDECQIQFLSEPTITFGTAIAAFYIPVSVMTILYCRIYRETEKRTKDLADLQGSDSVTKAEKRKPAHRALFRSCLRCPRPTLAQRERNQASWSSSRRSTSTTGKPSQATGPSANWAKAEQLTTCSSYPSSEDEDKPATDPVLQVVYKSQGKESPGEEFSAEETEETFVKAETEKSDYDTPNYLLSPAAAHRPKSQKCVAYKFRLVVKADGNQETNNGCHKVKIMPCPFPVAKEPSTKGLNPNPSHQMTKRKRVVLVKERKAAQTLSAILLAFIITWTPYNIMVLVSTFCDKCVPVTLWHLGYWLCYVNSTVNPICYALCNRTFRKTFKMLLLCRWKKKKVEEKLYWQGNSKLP
Experimental: The compound activity in the present invention (EC50 or IC50) is measured using a 384 plate-based imaging assay that monitors drug induced intracellular Ca^2+ release in whole cells. Activation of hM1 (human Muscarinic receptor subtype 1, gene bank access NM_000738), rM1 (rat Muscarinic receptor subtype 1, gene bank access NM_080773), hM3 (human Muscarinic receptor subtype 3, gene bank access NM_000740NM_000740) and hM5 (human Muscarinic receptor subtype 5, gene bank access NM_0121258), receptors expressed in CHO cells (Chinese hamster ovary cells, ATCC) is quantified in a Molecular Devices FLIPR II™ instrument as an increase in fluorescent signal. Inhibition of hM3 and hM5 by compounds is determined by the decrease in fluorescent signal in response to 2 nM acetylcholine activation.
Prior to experiment, the cell culture medium is removed from the plates by inversion. […] Plates are incubated at 37° C. for 60 minutes prior to start the experiment. The incubation is terminated by washing the cells four times in assay buffer, leaving a residual 25 μl buffer per well. Cell plates are then transferred to the FLIPR, ready for compound additions.
The day of experiment, acetylcholine and compounds are diluted in assay buffer in three-fold concentration range (10 points serial dilution) for addition by FLIPR instrument. For all calcium assays, a baseline reading is taken for 10 seconds followed by the addition of 12.5 μl of compounds, resulting in a total well volume of 37.5 μl. Data is collected every second for 60 pictures and then every 6 seconds for 20 pictures prior to the addition of agonist. For hM3 and hM5, before agonist addition, a second baseline reading is taken for 10 seconds followed by the addition of 12.5 μl of agonist or buffer, producing a final volume of 50 μl. After agonist stimulation, the FLIPR continues to collect data every second for 60 pictures and then every 6 seconds for 20 pictures. The fluorescence emission is read using filter 1 (emission 510-570 nm) by the FLIPR on board CCD camera.
Calcium mobilization output data are calculated as the maximal relative fluorescence unit (RFU) minus the minimal value for both compound and agonist reading frame (except for hM1 and rM1 using only the maximal RFU). Data are analyzed using sigmoidal fits of a non-linear curve-fitting program (XLfit version 4.2.2 Excel add-in version 4.2.2 build 18 math 1Q version 2.1.2 build 18). All pEC50 and pIC50 values are reported as arithmetic means±standard error of mean of ‘n’ independent experiments.

cloned human M4 receptor = biological target: T2, cloned human M4 receptor (Homo sapiens, UniProt P08173); experiment: hM4 receptor GTPγS binding; assay type: biochemical; conditions: CHO membranes expressing hM4, [35S]GTPγS binding
T2 construct: purchased Perkin-Elmer RBHM4M; host or cells: CHO cell membranes
T2 sequence (P08173 1-479): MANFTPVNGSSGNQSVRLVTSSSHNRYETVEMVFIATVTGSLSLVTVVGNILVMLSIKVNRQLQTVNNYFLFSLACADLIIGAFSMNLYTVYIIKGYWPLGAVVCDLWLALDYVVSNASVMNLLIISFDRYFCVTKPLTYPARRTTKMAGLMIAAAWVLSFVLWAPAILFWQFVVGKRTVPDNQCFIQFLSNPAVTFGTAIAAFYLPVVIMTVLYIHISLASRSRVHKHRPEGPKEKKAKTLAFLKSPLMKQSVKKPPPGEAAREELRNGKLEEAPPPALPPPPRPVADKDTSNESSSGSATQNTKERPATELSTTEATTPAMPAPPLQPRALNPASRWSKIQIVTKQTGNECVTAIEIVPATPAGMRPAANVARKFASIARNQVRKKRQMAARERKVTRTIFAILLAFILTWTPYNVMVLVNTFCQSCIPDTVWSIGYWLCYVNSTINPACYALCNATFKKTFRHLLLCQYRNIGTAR
Experimental: Membranes produced from Chinese hamster ovary cells (CHO) expressing the cloned human M4 receptor (human Muscarinic receptor subtype 4, gene bank access NM_000741), are obtained from Perkin-Elmer (RBHM4M). The membranes are thawed at 37° C., passed 3 times through a 23-gauge blunt-end needle, diluted in the GTPγS binding buffer (50 mM Hepes, 20 mM NaOH, 100 mM NaCl, 1 mM EDTA, 5 mM MgCl2, pH 7.4, 100 μM DTT). The EC50, IC50 and Emax of the compounds of the invention are evaluated from 10-point dose-response curves (three fold concentration range) done in 60 μl in 384-well non-specific binding surface plate (Corning). Ten microliters from the dose-response curves plate (5× concentration) are transferred to another 384 well plate containing 25 μl of the following: 10 μg of hM4 membranes, 500 μg of Flashblue beads (Perkin-Elmer) and GDP 40 μM. An additional 15 μl containing 3.3× (60,000 dpm) of GTPγ^35S (0.4 nM final) are added to the wells resulting in a total well volume of 50 μl. Basal and maximal stimulated [^35S]GTPγS binding are determined in absence and presence of 30 μM final of acetylcholine agonist. The membranes/beads mix are pre-incubated for 15 minutes at room temperature with 40 μM GDP prior to distribution in plates (20 μM final). The reversal of acetylcholine-induced stimulation (10 μM final) of [^35S]GTPγS binding is used to assay the antagonist properties (IC50) of the compounds. The plates are incubated for 60 minutes at room temperature then centrifuged at 400 rpm for 5 minutes. The radioactivity (cpm) is counted in a Trilux (Perkin-Elmer).
Values of EC50, IC50 and Emax are obtained using sigmoidal fits of a non-linear curve-fitting program (XLfit version 4.2.2 Excel add-in version 4.2.2 build 18 math 1Q version 2.1.2 build 18) of percent stimulated [^35S]GTPγS binding vs. log(molar ligand). All pEC50 and pIC50 values are reported as arithmetic means±standard error of mean of ‘n’ independent experiments.

## CC1(N2CCC(N3C(=O)N[C@@H]4CCCC[C@H]43)CC2)CCN(C(=O)C2CC2)CC1 [Example 06, (3aR,7aR)-1-[1-[1-(cyclopropanecarbonyl)-4-methyl-4-piperidyl]-4-piperidyl]-3a,4,5,6,7,7a-hexahydro-3H-benzoimidazol-2-one]
[1]
  pEC50: < 4.31
Cloned human M4 receptor
  pEC50: < 4.52

## CCOC(=O)N1CCC(C)(N2CCC(N3C(=O)N[C@H]4CCCC[C@@H]43)CC2)C1 (single isomer, unassigned) [Example 21]
[1]
  pEC50: < 5.08
Cloned human M4 receptor
  pEC50: < 4.05

## CCC(=O)N1CCC(C)(N2CCC(N3C(=O)N[C@H]4CCCC[C@@H]43)CC2)CC1 [Example 18, (3aS,7aS)-3-[1-(4-methyl-1-propanoyl-4-piperidyl)-4-piperidyl]-3a,4,5,6,7,7a-hexahydro-1H-benzimidazol-2-one]
[1]
  pEC50: < 4.40
Cloned human M4 receptor
  pEC50: < 4.52

## CCOC(=O)N1CCC(C)(N2CCC(N3C(=O)N[C@H]4CCCC[C@@H]43)CC2)CC1 [Example 01, Ethyl 4-[4-[(3aS,7aS)-2-oxo-3a,4,5,6,7,7a-hexahydro-3H-benzoimidazol-1-yl]-1-piperidyl]-4-methyl-piperidine-1-carboxylate]
[1]
  pEC50: 7.30
Cloned human M4 receptor
  pEC50: < 5.92

## CC#CCOC(=O)N1CCC(C)(N2CCC(N3C(=O)N[C@H]4CCCC[C@@H]43)CC2)CC1 [Example 16, But-2-ynyl 4-[4-[(3aS,7aS)-2-oxo-3a,4,5,6,7,7a-hexahydro-3H-benzimidazol-1-yl]-1-piperidyl]-4-methyl-piperidine-1-carboxylate]
[1]
  pEC50: < 4.40
Cloned human M4 receptor
  pEC50: < 4.05

## CC(C)OC(=O)N1CCC(C)(N2CCC(N3C(=O)N[C@@H]4CCCC[C@H]43)CC2)CC1 [Example 05, Propan-2-yl 4-[4-[(3aR,7aR)-2-oxo-3a,4,5,6,7,7a-hexahydro-3H-benzoimidazol-1-yl]-1-piperidyl]-4-methyl-piperidine-1-carboxylate]
[1]
  pEC50: < 4.31
Cloned human M4 receptor
  pEC50: < 4.52
